Reference: ChEMBL document CHEMBL5108065 (J Med Chem, 2022)
Converted amounts (≈) assume the structure as drawn. The source made the active and inactive calls. The rule behind the calls is not given here.

How the values were obtained:
[1] = species on record: Homo sapiens; assay: Inhibition of BACE (unknown origin) at 10 uM relative to control
[2] = test system: Plasmodium falciparum; assay: Antimalarial activity against Plasmodium falciparum K1 harbouring Pf-crt, Pf-mdrl,Pf-dhfr, Pf-dhps mutated loci assessed as inhibition of parasite growth pretreated for 48 hrs followed by [3H]-hypoxanthine addition measured after 24 hrs by scintillation counting method; format: functional, organism-based
[3] = test system: Plasmodium falciparum; assay: Antimalarial activity against Plasmodium falciparum PH1263-C harbouring Pf-crt mutated loci assessed as inhibition of parasite growth pretreated for 48 hrs followed by [3H]-hypoxanthine addition measured after 24 hrs by scintillation counting method; format: functional, organism-based
[4] = test system: Plasmodium falciparum; assay: Antimalarial activity against Plasmodium falciparum TM90C2b harbouring Pf-crt, Pf-mdrl,Pfd-hfr, Pf-cytbQ0 mutated loci assessed as inhibition of parasite growth pretreated for 48 hrs followed by [3H]-hypoxanthine addition measured after 24 hrs by scintillation counting method; format: functional, organism-based
[5] = test system: Plasmodium falciparum; assay: Antimalarial activity against DDD107498 resistant Plasmodium falciparum Dd2 harbouring pfeef2 mutated loci assessed as inhibition of parasite growth pretreated for 48 hrs followed by [3H]-hypoxanthine addition measured after 24 hrs by scintillation counting method; format: functional, organism-based
[6] = test system: Plasmodium falciparum; assay: Antimalarial activity against KAF156 resistant Plasmodium falciparum Dd2 harbouring pf-carl mutated loci assessed as inhibition of parasite growth pretreated for 48 hrs followed by [3H]-hypoxanthine addition measured after 24 hrs by scintillation counting method; format: functional, organism-based
[7] = molecular target: T1, Plasmepsin X (Plasmodium falciparum (isolate 3D7), UniProt Q8IAS0); assay: Inhibition of PMX in Plasmodium falciparum 3D7 HA epitope
T1 sequence (Q8IAS0 whole entry): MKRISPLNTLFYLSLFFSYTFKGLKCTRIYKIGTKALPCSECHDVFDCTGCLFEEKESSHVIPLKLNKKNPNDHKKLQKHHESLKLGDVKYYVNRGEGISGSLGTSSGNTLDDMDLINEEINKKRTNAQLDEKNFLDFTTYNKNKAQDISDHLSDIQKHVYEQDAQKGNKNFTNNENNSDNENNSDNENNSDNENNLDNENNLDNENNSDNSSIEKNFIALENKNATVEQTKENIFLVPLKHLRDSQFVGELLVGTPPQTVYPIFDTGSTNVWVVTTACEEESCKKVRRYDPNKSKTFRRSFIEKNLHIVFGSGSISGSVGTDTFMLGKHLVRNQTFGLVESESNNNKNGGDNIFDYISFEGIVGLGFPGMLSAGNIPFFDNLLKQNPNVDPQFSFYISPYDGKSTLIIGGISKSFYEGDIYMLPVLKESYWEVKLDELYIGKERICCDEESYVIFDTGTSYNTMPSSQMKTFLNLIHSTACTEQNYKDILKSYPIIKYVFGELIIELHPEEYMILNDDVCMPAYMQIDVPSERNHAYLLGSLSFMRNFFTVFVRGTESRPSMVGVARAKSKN

[8] = Intrinsic clearance in rat hepatocytes measured per 10^6 cells; format: ADME, cell-based, Hepatocyte
[9] = AUC in Cynomolgus monkey blood at 10 mg/kg, po measured at 2 to 72 hrs by LC-MS/MS analysis; format: ADME, organism-based, Macaca fascicularis; set-up: dose 10 mg/kg, time 2-72 hrs, route po
[10] = Cardiotoxicity in anesthetized guinea-pig assessed as decrease in heart rate; format: toxicity, Cavia porcellus; details: 0.09 µM, DDE = dose-dependent effect, dose 90 nM
[11] = Cardiotoxicity in anesthetized guinea-pig assessed as cardiac contractility; format: toxicity, Cavia porcellus; details: 0.09 µM, DDE = dose-dependent effect, dose 90 nM
[12] = fAUC in Han Wistar rat at 1000 mg/kg, po administered every other day for 7 days; format: ADME, organism-based; details: in vivo, 168 h, time 7 day
[13] = AUC in Han Wistar rat at 1000 mg/kg, po administered every other day for 7 days; format: ADME, organism-based; set-up: dose 1000 mg/kg, time 7 day, route po; details: in vivo, 168 h
[14] = fCmax in Han Wistar rat at 1000 mg/kg, po administered every other day for 7 days; format: ADME, organism-based; details: in vivo, 168 h, time 7 day
[15] = Cmax in Han Wistar rat at 1000 mg/kg, po administered every other day for 7 days; format: ADME, organism-based; set-up: dose 1000 mg/kg, time 7 day, route po; details: in vivo
[16] = Toxicity in Han Wistar rat assessed as effect on mydriasis at 250 to 1000 mg/kg, po administered every other day for 7 days; format: organism-based; details: in vivo, 168 h, dose 250-1000 mg/kg, time 7 day
[17] = Toxicity in Han Wistar rat assessed as effect on pupillary reflex at 250 to 1000 mg/kg, po administered every other day for 7 days; format: organism-based; details: in vivo, 168 h, dose 250-1000 mg/kg, time 7 day
[18] = Toxicity in Han Wistar rat assessed as effect on scotopic amplitude at 1000 mg/kg, po administered every other day for 7 days by ERG analysis; format: organism-based; details: in vivo, 168 h, time 7 day
[19] = Genotoxicity in Han Wistar rat by ames assay; format: toxicity
[20] = Phototoxicity assessed as minimum extinction coefficient of the compound; format: toxicity
[21] = in vivo; details: cynomolgus monkey, blood, po, 10 mg/kg
[22] = molecular target: T1, Plasmepsin X; assay: biochemical
Description: Inhibition of Plasmodium falciparum recombinant C-terminal TEV cleavable 8his-tagged PMX by FRET assay

[23] = test system: Plasmepsin X (Plasmodium falciparum); assay: Binding affinity to Plasmodium falciparum PMX assessed as dissociation constant by SPR analysis
[24] = Solubility of the compound in FeSSIF at pH 5.8; format: physicochemical; details: simulated gi fluid
[25] = test system: Plasmodium falciparum; assay: Antimalarial activity against blood stage Plasmodium infected in NSG mouse model assessed as parasite recrudescence by measuring parasitemia at 50 mg/kg, po measured 60 days by flow cytometry; format: functional, organism-based; details: time 60.0 day
[26] = test system: Plasmodium berghei; assay: Antimalarial activity against Plasmodium berghei sporozoites infected in naive C57B/6 liver mouse model assessed as decrease in liver infection at 50 mg/kg, po administered twice daily for 1 to 2 days by Giemsa staining based microscopic analysis; format: functional, organism-based; details: time 1-2 day
[27] = test system: Plasmodium berghei; assay: Antimalarial activity against luciferase expressing Plasmodium berghei sporozoites infected in naive C57B/6 liver mouse model assessed as decrease in liver infection at 50 mg/kg, po administered once daily on day 8 by Giemsa staining based microscopic analysis; format: functional, organism-based; details: time 8.0 day
[28] = Drug metabolism in human hepatocytes assessed as (S)-6-(2-chloro-3-((6-cyclopropylpyridin-3-yl)amino)phenyl)-2-imino-6-methyl-3-((2S,4S)-2-methyltetrahydro-2H-pyran-4-yl)tetrahydropyrimidin-4(1H)-one metabolite formation; format: ADME, cell-based, Hepatocyte
[29] = Drug metabolism in rat hepatocytes assessed as (S)-6-(2-chloro-3-((6-cyclopropylpyridin-3-yl)amino)phenyl)-2-imino-6-methyltetrahydropyrimidin-4(1H)-one metabolite formation; format: ADME, cell-based, Hepatocyte
[30] = test system: HepG2; assay: Cytotoxicity against human HepG2 cells assessed reduction in cell viability; format: toxicity, cell-based
[31] = molecular target: Voltage-gated inwardly rectifying potassium channel KCNH2 (Homo sapiens, UniProt Q12809); assay: Inhibition of hERG cardiac ion channel by patch clamp assay; format: toxicity
Voltage-gated inwardly rectifying potassium channel KCNH2, sequence (Q12809 whole entry): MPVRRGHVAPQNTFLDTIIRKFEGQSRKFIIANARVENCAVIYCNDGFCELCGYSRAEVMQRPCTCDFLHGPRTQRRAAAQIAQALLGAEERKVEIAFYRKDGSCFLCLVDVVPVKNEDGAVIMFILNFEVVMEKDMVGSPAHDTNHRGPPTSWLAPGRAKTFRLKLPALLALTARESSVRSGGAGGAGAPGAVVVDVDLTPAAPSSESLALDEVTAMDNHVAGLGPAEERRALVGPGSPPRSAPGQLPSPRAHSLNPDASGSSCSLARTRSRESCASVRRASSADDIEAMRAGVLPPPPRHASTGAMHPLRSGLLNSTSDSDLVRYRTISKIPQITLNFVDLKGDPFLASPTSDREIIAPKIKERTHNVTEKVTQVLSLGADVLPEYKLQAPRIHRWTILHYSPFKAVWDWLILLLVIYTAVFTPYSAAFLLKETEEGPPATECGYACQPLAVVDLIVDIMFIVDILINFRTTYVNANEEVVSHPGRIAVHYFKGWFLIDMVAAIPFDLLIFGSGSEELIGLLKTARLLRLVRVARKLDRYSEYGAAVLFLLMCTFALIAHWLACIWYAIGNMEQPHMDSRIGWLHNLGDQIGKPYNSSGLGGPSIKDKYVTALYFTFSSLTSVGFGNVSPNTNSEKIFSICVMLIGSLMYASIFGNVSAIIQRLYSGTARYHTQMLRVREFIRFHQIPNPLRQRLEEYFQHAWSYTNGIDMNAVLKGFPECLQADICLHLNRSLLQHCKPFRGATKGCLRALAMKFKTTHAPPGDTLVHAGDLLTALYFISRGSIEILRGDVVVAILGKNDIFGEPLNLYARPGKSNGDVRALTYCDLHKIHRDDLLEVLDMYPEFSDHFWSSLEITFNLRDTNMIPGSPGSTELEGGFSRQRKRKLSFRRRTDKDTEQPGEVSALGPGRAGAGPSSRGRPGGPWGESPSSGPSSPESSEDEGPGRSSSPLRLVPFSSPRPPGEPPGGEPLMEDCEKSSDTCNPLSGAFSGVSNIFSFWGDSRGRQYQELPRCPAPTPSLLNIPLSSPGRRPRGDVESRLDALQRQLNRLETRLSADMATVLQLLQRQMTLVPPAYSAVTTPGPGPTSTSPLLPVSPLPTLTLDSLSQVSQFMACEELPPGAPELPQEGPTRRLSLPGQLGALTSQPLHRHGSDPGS

[32] = molecular target: Voltage-dependent L-type calcium channel subunit alpha-1C (Homo sapiens, UniProt Q13936); assay: Inhibition of Cav1.2 (unknown origin) cardiac ion channel by patch clamp assay; format: toxicity
Voltage-dependent L-type calcium channel subunit alpha-1C, sequence (Q13936 whole entry): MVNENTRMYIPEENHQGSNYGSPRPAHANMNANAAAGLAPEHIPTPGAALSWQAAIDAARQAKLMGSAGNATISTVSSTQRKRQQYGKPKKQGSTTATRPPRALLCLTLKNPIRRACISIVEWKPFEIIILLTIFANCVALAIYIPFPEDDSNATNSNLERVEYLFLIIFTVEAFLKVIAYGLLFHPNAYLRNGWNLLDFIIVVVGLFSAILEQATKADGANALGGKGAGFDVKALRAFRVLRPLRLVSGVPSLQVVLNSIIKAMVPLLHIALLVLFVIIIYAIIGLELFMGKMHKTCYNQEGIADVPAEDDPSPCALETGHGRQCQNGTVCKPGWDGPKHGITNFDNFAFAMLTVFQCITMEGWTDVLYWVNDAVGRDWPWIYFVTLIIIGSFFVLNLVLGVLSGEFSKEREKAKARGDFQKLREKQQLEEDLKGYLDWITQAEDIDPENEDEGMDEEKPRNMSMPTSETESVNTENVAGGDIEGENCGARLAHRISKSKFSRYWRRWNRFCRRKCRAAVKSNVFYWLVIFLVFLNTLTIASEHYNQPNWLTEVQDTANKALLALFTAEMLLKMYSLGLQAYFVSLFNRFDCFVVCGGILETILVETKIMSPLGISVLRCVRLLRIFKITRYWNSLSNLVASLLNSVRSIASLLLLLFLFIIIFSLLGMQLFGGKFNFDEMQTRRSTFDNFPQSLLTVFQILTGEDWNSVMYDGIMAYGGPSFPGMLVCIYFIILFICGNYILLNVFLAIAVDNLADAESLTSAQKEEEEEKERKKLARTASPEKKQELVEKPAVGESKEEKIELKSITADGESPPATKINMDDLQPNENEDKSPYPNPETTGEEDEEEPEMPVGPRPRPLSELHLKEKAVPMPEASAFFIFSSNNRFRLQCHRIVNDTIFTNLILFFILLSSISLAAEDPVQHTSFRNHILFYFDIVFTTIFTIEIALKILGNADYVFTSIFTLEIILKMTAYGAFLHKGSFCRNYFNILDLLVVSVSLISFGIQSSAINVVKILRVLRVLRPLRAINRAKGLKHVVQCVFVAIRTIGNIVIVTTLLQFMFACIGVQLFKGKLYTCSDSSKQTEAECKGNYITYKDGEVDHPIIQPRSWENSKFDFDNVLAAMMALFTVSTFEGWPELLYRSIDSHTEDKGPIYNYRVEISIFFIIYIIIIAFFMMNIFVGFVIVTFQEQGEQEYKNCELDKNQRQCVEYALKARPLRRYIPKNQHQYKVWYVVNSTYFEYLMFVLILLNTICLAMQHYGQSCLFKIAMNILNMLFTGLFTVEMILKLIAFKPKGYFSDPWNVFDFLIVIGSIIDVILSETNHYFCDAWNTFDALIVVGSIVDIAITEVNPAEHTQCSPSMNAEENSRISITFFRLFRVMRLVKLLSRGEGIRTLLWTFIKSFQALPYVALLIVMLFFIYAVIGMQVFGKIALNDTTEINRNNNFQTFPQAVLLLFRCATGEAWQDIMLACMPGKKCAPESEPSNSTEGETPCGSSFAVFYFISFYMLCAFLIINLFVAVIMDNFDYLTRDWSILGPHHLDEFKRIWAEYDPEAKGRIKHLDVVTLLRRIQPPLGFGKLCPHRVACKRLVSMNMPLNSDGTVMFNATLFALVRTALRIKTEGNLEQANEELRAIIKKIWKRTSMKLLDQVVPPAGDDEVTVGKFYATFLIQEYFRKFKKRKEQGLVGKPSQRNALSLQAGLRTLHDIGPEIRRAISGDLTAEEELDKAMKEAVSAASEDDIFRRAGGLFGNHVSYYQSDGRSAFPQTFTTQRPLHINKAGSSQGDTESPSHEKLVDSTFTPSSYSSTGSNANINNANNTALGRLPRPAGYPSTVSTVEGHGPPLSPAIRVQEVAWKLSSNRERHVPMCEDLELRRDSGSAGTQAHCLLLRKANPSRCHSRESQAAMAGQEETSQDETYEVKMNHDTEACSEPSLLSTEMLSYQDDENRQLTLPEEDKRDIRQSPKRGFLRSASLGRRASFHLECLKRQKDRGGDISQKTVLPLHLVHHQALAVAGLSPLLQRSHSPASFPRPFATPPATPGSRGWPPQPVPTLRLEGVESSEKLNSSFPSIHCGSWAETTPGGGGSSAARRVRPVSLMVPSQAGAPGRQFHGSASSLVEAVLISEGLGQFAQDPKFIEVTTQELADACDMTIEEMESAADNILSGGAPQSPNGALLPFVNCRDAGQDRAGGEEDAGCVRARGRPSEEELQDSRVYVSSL

[33] = molecular target: T2, A-type voltage-gated potassium channel KCND3 (Homo sapiens, UniProt Q9UK17); assay: Inhibition of Kv4.3 (unknown origin) by patch clamp method; format: toxicity
T2 sequence (Q9UK17 whole entry): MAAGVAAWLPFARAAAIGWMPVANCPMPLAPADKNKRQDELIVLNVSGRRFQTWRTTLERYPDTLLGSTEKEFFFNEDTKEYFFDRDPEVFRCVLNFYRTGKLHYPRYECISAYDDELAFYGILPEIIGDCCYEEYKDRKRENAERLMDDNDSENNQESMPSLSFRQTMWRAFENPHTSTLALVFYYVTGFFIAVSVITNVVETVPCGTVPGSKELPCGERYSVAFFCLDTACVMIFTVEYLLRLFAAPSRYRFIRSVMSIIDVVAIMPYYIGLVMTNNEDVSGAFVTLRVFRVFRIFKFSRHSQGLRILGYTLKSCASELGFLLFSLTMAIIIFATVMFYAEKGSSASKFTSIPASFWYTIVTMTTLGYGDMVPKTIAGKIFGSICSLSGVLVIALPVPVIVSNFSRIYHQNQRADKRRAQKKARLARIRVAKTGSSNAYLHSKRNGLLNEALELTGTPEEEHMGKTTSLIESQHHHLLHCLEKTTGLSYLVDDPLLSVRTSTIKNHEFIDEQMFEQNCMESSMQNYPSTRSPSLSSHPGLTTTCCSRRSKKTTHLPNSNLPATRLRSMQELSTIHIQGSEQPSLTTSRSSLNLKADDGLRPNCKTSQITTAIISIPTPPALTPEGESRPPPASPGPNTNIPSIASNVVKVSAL

With `C[C@H]1C[C@@H](N2C(=N)N[C@](C)(c3cccc(NC(=O)c4cccc(C#N)c4)c3Cl)CC2=O)CCO1` the inhibition [1] was 64%, the IC50 [2] was 0.033 µM and the IC50 [3] was 0.018 µM. It also gave an IC50 [4] of 0.015 µM, an IC50 [5] of 0.022 µM and an IC50 [6] of 0.019 µM. For the same compound, the IC50 [7] was 0.007 µM, the CLH [8] was 66 µL/min and the AUC [9] was 7.38 µM·h. The Activity [10] was “Dde”, the Activity [11] was “Dde” and the fAUC [12] was 908 µM·h. It also gave an AUC [13] of 2182 µM·h, a fCmax [14] of 11 µM and a Cmax [15] of 25000 ng/mL. The Activity [16] was “Non-Toxic”, the Activity [17] was “Non-Toxic” and the Activity [18] was “Non-Toxic”. The Activity [19] was “Non-Toxic”, the Activity [20] was 2336 a.u.L/mol.cm and the Tmax [21] was 1 h. For the same compound, the IC50 [22] was 0.007 µM and the Kd [23] was 0.0055 µM.

In the case of `C[C@H]1C[C@@H](N2C(=N)N[C@](C)(c3cccc(Nc4ccc(C5CC5)nc4)c3Cl)CC2=O)CCO1`, the solubility [24] is reported as 959 µM (≈ 449 µg/mL), the Activity [25] is reported as “Active” and the Activity [26] is reported as “Active”. For the same compound, the Activity [27] was “Active”, the Drug metabolism [28] was “Metabolite_Detected” and the Drug metabolism [29] was “Metabolite_Detected”. It also gave an IC50 [30] of 16 µM, an IC50 [31] of 14 µM and an IC50 [32] of 27 µM. It also gave an IC50 [33] of 28 µM.
